Molecular target: T1, AcCPR (Aphis citricidus, UniProt A0A346QRP0)
T1 construct: full-length ORF in pFastBac HT A, 6xHis-tagged, Sf9 cell extract (soluble supernatant; called microsomes in results)
T1 sequence (A0A346QRP0 1-681): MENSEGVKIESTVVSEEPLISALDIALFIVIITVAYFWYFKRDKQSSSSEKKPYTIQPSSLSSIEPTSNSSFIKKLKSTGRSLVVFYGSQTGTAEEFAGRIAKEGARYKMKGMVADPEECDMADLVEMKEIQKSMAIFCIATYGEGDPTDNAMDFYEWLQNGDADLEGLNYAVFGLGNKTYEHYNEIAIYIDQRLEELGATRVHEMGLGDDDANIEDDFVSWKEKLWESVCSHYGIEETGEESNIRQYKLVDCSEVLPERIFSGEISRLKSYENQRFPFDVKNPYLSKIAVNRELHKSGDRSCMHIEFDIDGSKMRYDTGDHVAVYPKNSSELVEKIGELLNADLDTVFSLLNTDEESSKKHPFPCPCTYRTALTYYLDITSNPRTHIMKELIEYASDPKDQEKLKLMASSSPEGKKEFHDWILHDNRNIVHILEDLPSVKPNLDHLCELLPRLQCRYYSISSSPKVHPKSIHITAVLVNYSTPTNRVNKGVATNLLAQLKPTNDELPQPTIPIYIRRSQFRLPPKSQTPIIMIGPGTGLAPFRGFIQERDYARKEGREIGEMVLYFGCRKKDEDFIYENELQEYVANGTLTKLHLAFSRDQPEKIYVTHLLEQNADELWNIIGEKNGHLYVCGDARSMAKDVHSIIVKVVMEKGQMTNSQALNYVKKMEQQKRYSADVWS
Assay: NADPH-cytochrome c reduction, absorbance at […] nm, Sf9 cell extract
Type: biochemical
Details: cytochrome c as electron acceptor, 0.3 M potassium phosphate pH 7.7; NADPH 2 uL of 10 mM stock in 200 uL

NC(=O)C1=CN([C@@H]2O[C@H](COP(=O)(O)OP(=O)(O)OC[C@H]3O[C@@H](n4cnc5c(N)ncnc54)[C@H](OP(=O)(O)O)[C@@H]3O)[C@@H](O)[C@H]2O)C=CC1 [NADPH]
NADPH-cytochrome c reduction, absorbance at 550 nm, Sf9 cell extract: Heterologously expressed AcCPR activity was determined by spectrophotometric measurement of the activity of NADPH-cytochrome-c reduction
